Laboratory results taken from patent US9371295B2, “Compounds for use in the treatment of disorders that are ameliorated by inhibition of HDAC” (IRBM—Science Park S.p.A., priority 2012, dated 2016).

Assays:
[1] = tested on: human γ-globin promoter (EGFP reporter) in K562 cells; assay: HbF activation assay on K562 (EGFP/RFP reporter model system for screening of inducers of fetal hemoglobin); assay type: cell-based; details: 60 hours
Excerpt: In order to test several compounds, a model system was produced based on previous findings present in the literature. The K562 erythroid-like cell lines, isolated and characterized by Lozzio & Lozzio (Blood, 45(3), pp 321-334) from a patient with chronic myelogenous leukemia in blast crisis, have been extensively employed as a useful in vitro model to study the molecular mechanism(s) regulating the expression of embryonic and fetal human globin genes, as well as for screening of new differentiation-inducing compounds. A stable cell line where reporter genes encoding green EGFP and far-red fluorescent protein red-FP are placed under the control of the human γ-globin or β-globin promoters respectively was used (see Vadolas et al, Hum. Mol. Genet. 2004, 13, 2, 223-233 for details). The modified 3-cluster also contains the upstream regulatory region called LCR. This cell line grows in suspension at 37° C. and 5% CO2 in humidified atmosphere in the following medium: DMEM, 10% foetal bovine serum, glutamine and antibiotics (penicillin and streptomycin);
The assay procedures is as follows: • Single concentration compounds or serially diluted samples are transferred to an empty assay plates by a spotter (ATS-100, EDC Biosystems, USA) in order to have a final concentration of DMSO of 0.25% in 50 μL of cell culture. Source plats contains compounds dissolved in 100% DMSO • Black, transparent bottom, 384 wells, tissue culture treated plates are used as assay plates. • Assay plates containing spotted compounds are filled with a suspension of cell in the described assay medium. The final cell concentration is of 1000 cells per well. • Cells are incubated in humidified atmosphere, 37° C.-5% CO2, for 60 hours • Cell nuclei are stained by adding 10 ul (6 μM; 1 μM final) Hoechst 33342 (Life Technologies, USA) • The cell associated intensity is read by a plate based cytometer (ACUMEN explorer, TTP Labtech, UK) • The nuclei count is used to assess the cell proliferation/death and to normalize the total EGFP/RFP intensity. HbF Activation Assay in Human Cell Line K562
The compounds of the invention were tested in the HbF activation assay on K562, as model system for screening of potential inducers of fetal hemoglobin.

[2] = tested on: HDAC in Hela cells; assay: HDAC Hela Cell Based assay
[3] = biological target: T1, HDAC1 (Homo sapiens, UniProt Q13547); assay: HDAC1 assay (Fluor-de-Lys fluorescent deacetylase assay); assay type: biochemical; details: read-out: hHDAC IC50
T1 construct: made in house
Procedure: The HDAC1 assay is used to quantify the histone deacetylase (HDAC) activity. The assay is performed in 384 well microtiter plates by pre-incubating serial dilutions of the compounds with a fixed concentration of HeLa nuclear extract or purified HDAC1 and then adding an acetylated lysine-containing substrate/developer that fluoresces upon deacetylation.
Reagents of the HDAC Fluorescent Activity Assay are purchased from BioMol Research Laboratories (Plymouth Meeting, Pa.) and feature the Fluor-de-Lys™ Substrate/Developer System.
TSA Stock: TSA is provided as a 10 mM stock solution in 100% dimethylsulfoxide (DMSO). […] The final concentration in the assay is 20 uM.
3 uM [final] TSA to this solution increases its ability to stop the reaction.
HDAC1 Working Solution: The HDAC1 enzyme is diluted in assay buffer prior to each use from a fresh aliquot of enzyme. The final concentration in the assay is 1-2 nM.
Compounds: Test compounds are directly transferred from a 100% DMSO solution into assay plates by spotting nanoliters of solutions by an acoustic dispenser (ATS-100, EDC biosystems, US).
HeLa cells transiently transfected with pCDNA3-HDAC1-FLAG are grown to 80% confluence on 10 cm culture dishes in DMEM, 10% Fetal bovine serum supplemented with antibiotics and glutamine. Cells are washed with 10 ml cold PBS and scraped into 2 ml of PBS. Cells are centrifuged for 5 minutes at 800×g at 4° C., washed with 30 ml PBS and resuspended in 10 ml PBS, counted, re-centrifuged and frozen at −80° C.
The frozen cell pellet is re-suspended in 1 ml of hypotonic lysis buffer (LB: 20 mM Hepes pH7.9, 0.25 mM EDTA, 10% glycerol) containing COMPLETE protease inhibitor and incubated on ice for 15 minutes, followed by homogenization on a 2-ml DounceB homogenizer (25 strokes). 150 mM KCl and 0.5% NP-40 are added to the homogenate and the solution is sonicated twice for 30 seconds (output5/6, duty cycle 90) and incubated for 1 hour at 4° C. After a 30 minutes centrifugation at 12000 rpm and 4° C. the supernatant (soluble extract) is collected and protein concentration is determined using the BIORAD assay.
Anti-FLAG M2 affinity resin (Sigma) is washed three times with TBS and twice with LB. 10 μl of the LB-washed resin/mg of protein (2-3 ug of Flagged-HDAC1) are added to the soluble extract (1 mL) and incubated overnight at 4° C. with gentle mixing. The resin is then collected by centrifugation, washed once with LB, twice with LB+0.1% NP40 and twice with elution buffer (50 mM Hepes pH 7.4, 5% glycerol, 100 mM KCl, 0.01% Triton X-100).
The concentration of purified HDAC is determined by Western blot analysis.

T1 sequence (Q13547 whole entry): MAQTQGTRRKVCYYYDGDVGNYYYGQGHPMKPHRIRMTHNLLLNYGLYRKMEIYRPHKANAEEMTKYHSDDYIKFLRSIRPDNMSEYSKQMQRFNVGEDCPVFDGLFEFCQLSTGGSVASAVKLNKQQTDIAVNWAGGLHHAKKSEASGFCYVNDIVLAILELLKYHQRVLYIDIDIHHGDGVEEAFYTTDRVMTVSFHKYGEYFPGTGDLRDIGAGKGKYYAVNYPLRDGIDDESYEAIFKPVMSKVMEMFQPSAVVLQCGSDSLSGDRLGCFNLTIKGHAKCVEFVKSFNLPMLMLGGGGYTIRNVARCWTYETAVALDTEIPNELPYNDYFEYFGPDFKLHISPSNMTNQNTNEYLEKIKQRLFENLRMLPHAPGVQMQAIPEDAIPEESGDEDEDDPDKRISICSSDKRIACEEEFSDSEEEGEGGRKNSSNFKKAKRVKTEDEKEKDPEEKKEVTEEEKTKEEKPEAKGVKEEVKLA

| Structure (SMILES) | EC50 [1] [nM] | IC50 [2] [nM] | IC50 [3] [nM] |
| --- | --- | --- | --- |
| CCC(=O)CCCCC[C@H](NC(=O)C1CCN(C)CC1)c1ncc(-c2cc3ccccc3nc2OC)o1 [Compound 39] | 100 to 1000 | < 100 | < 100 |
| CCC(=O)CCCCC[C@H](NC(=O)c1cncs1)c1ncc(-c2cc3ccccc3nc2OC)o1 [Compound 40, (S)-N-(1-(5-(2-methoxyquinolin-3-yl)oxazol-2-yl)-7-oxononyl)thiazole-5-carboxamide] | > 1000 | < 100 | < 100 |
| CCC(=O)CCCCC[C@H](NC(=O)C(=O)N(C)C)c1nnc(-c2cc3ccccc3nc2OC)o1 [Compound 45, (S)-N1-(1-(5-(2-methoxyquinolin-3-yl)-1,3,4-oxadiazol-2-yl)-7-oxononyl)-N2,N2-dimethyloxalamide] | > 1000 | 100 to 1000 | < 100 |
| CCC(=O)CCCCC[C@H](NC(=O)C(=O)N1CCN(C)CC1)c1nnc(-c2cc3ccccc3nc2OC)o1 [Compound 46, (S)-N-(1-(5-(2-methoxyquinolin-3-yl)-1,3,4-oxadiazol-2-yl)-7-oxononyl)-2-(4-methylpiperazin-1-yl)-2-oxoacetamide] | > 1000 | 100 to 1000 | < 100 |
| CCC(=O)CCCCC[C@H](NC(=O)C1CCN(C)CC1)c1nnc(-c2cc3ccccc3nc2OC)o1 [Compound 47, (S)-N-(1-(5-(2-methoxyquinolin-3-yl)-1,3,4-oxadiazol-2-yl)-7-oxononyl)-1-methylpiperidine-4-carboxamide] | 100 to 1000 | 100 to 1000 | < 100 |
| CCC(=O)CCCCC[C@H](NC(=O)Cc1c(C)[nH]c2ccc(OC)cc12)c1nnc(-c2cc3ccccc3nc2OC)o1 [Compound 48, (S)-2-(5-methoxy-2-methyl-1H-indol-3-yl)-N-(1-(5-(2-methoxyquinolin-3-yl)-1,3,4-oxadiazol-2-yl)-7-oxononyl)acetamide] | > 1000 | < 100 | < 100 |
| CCC(=O)CCCCC[C@H](NC(=O)CCn1c(CC)nc2ccccc21)c1nnc(-c2cc3ccccc3nc2OC)o1 [Compound 50, (S)-3-(2-ethyl-1H-benzo[d]imidazol-1-yl)-N-(1-(5-(2-methoxyquinolin-3-yl)-1,3,4-oxadiazol-2-yl)-7-oxononyl)propanamide] | 100 to 1000 | 100 to 1000 | < 100 |
| CCC(=O)CCCCC[C@H](NC(=O)CCN(C)C)c1nnc(-c2cc3ccccc3nc2OC)o1 [Compound 51, (S)-3-(dimethylamino)-N-(1-(5-(2-methoxyquinolin-3-yl)-1,3,4-oxadiazol-2-yl)-7-oxononyl)propanamide] | > 1000 | 100 to 1000 | < 100 |
| CCC(=O)CCCCC[C@H](NC(=O)C1CN(C)C1)c1ncc(-c2ccc(-c3ccn[nH]3)cc2)o1 [Compound 53, (S)-N-(1-(5-(4-(1H-pyrazol-5-yl)phenyl)oxazol-2-yl)-7-oxononyl)-1-methylazetidine-3-carboxamide] | > 1000 | 100 to 1000 | < 100 |
| CCC(=O)CCCCC[C@H](NC(=O)C1CN(C)C1)c1ncc(-c2ccc(-c3ccnn3C)cc2)o1 [Compound 54, (S)-1-methyl-N-(1-(5-(4-(1-methyl-1H-pyrazol-5-yl)phenyl)oxazol-2-yl)-7-oxononyl)azetidine-3-carboxamide] | > 1000 | 100 to 1000 | < 100 |
| CCC(=O)CCCCC[C@H](NC(=O)C1CN(C(C)=O)C1)c1ncc(-c2cc3ccccc3nc2OC)o1 [Compound 55, (S)-1-acetyl-N-(1-(5-(2-methoxyquinolin-3-yl)oxazol-2-yl)-7-oxononyl)azetidine-3-carboxamide] | > 1000 | 100 to 1000 | < 100 |
| CCC(=O)CCCCC[C@H](NC(=O)C1CN(Cc2ccccc2)C1)c1ncc(-c2cc3ccccc3nc2OC)o1 [Compound 56, (S)-1-benzyl-N-(1-(5-(2-methoxyquinolin-3-yl)oxazol-2-yl)-7-oxononyl)azetidine-3-carboxamide] | > 1000 | 100 to 1000 | < 100 |
| CCC(=O)CCCCC[C@H](NC(=O)C1CNC1)c1ncc(-c2cc3ccccc3nc2OC)o1 [Compound 57, (S)-N-(1-(5-(2-methoxyquinolin-3-yl)oxazol-2-yl)-7-oxononyl)azetidine-3-carboxamide] | > 1000 | 100 to 1000 | < 100 |
| CCC(=O)CCCCC[C@H](NC(=O)[C@@H]1CC(F)(F)CN1C)c1ncc(-c2cc3ccccc3nc2OC)o1 [Compound 58, (S)-4,4-difluoro-N-((S)-1-(5-(2-methoxyquinolin-3-yl)oxazol-2-yl)-7-oxononyl)-1-methylpyrrolidine-2-carboxamide] | > 1000 | 100 to 1000 | < 100 |
| CCC(=O)CCCCC[C@H](NC(=O)Cn1ccnn1)c1ncc(-c2cc3ccccc3nc2OC)o1 [Compound 59, (S)-N-(1-(5-(2-methoxyquinolin-3-yl)oxazol-2-yl)-7-oxononyl)-2-(1H-1,2,3-triazol-1-yl)acetamide] | > 1000 | 100 to 1000 | < 100 |
| CCC(=O)CCCCC[C@H](NC(=O)[C@@H]1CC(F)(F)CN1)c1ncc(-c2cc3ccccc3nc2OC)o1 [Compound 60, (S)-4,4-difluoro-N-((S)-1-(5-(2-methoxyquinolin-3-yl)oxazol-2-yl)-7-oxononyl)pyrrolidine-2-carboxamide] | > 1000 | > 1000 | < 100 |
| CCC(=O)CCCCC[C@H](NC(=O)C1CN(C)C1)c1ncc(-c2ccc(-n3cccn3)cc2)o1 [Compound 61, (S)-N-(1-(5-(4-(1H-pyrazol-1-yl)phenyl)oxazol-2-yl)-7-oxononyl)-1-methylazetidine-3-carboxamide] | > 1000 | 100 to 1000 | < 100 |
| CCC(=O)CCCCC[C@H](NC(=O)C1CN(C(C)=O)C1)c1ncc(-c2ccc(-n3cccn3)cc2)o1 [Compound 62, (S)-N-(1-(5-(4-(1H-pyrazol-1-yl)phenyl)oxazol-2-yl)-7-oxononyl)-1-acetylazetidine-3-carboxamide] | > 1000 | 100 to 1000 | < 100 |
| CCC(=O)CCCCC[C@H](NC(=O)[C@H](CC(F)(F)F)N(C)C)c1ncc(-c2cc3ccccc3nc2OC)o1 [Compound 63, (S)-2-(dimethylamino)-4,4,4-trifluoro-N-((S)-1-(5-(2-methoxyquinolin-3-yl)oxazol-2-yl)-7-oxononyl)butanamide] | > 1000 | > 1000 | 100 to 1000 |
| CCC(=O)CCCCC[C@H](NC(=O)[C@@H](CC(F)(F)F)N(C)C)c1ncc(-c2cc3ccccc3nc2OC)o1 [Compound 64, (R)-2-(dimethylamino)-4,4,4-trifluoro-N-((S)-1-(5-(2-methoxyquinolin-3-yl)oxazol-2-yl)-7-oxononyl)butanamide] | > 1000 | > 1000 | < 100 |
